Results taken from the supplement of paper PMC10307832.

How the values were obtained:
Assay in all cases: relative viability (nuclei count vs DMSO), 5 days (fraction); higher = more cells survive
[1] = compound: Cc1nc(C(=O)NCC(=O)O)c(O)c2ccc(Oc3ccccc3)cc12 [FG-4592] + CC(=O)Nc1cccc(-n2c(=O)n(C3CC3)c(=O)c3c(Nc4ccc(I)cc4F)n(C)c(=O)c(C)c32)c1 [Trametinib] (partner 0.02 µM)
How it was run: (§1)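 One day after seeding in 1536-well plates, lung cancer cell lines were dosed by pin tool. Dosing was either single-drug or a fixed anchor-drug dose plus five library-drug doses (not always all listed) in √10 steps. After 5 days, nuclei were stained in one fix-and-stain step and counted on 4× images, and relative viability is the nuclei count of treated wells over that of vehicle wells, given as the median of duplicate plates.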

[2] = compound: Cc1nc(C(=O)NCC(=O)O)c(O)c2ccc(Oc3ccccc3)cc12 [FG-4592] + COc1cc2c(Oc3ccc(NC(=O)C4(C(=O)Nc5ccc(F)cc5)CC4)cc3F)ccnc2cc1OCCCN1CCOCC1 [Foretinib] (partner 0.25 µM)
How it was run: as §1

[3] = compound: Cc1nc(C(=O)NCC(=O)O)c(O)c2ccc(Oc3ccccc3)cc12 [FG-4592] + CS(=O)(=O)N1CCN(Cc2cc3nc(-c4cccc5[nH]ncc45)nc(N4CCOCC4)c3s2)CC1 [Pictilisib] (partner 1 µM)
How it was run: as §1

[4] = compound: CC1=CC(=C(N1C2=CC=C(C=C2)Cl)C)C(=O)CN3CCCCC3 [IU1-47] + Cc1nc(Nc2ncc(C(=O)Nc3c(C)cccc3Cl)s2)cc(N2CCN(CCO)CC2)n1 [Dasatinib] (partner 0.075 µM)
How it was run: as §1

Cell Line	relative viability ([1]; first compound 0.08 µM)	relative viability ([1]; first compound 0.253 µM)	relative viability ([1]; first compound 0.8 µM)	relative viability ([1]; first compound 2.53 µM)	relative viability ([1]; first compound 8 µM)	relative viability ([2]; first compound 0.08 µM)	relative viability ([2]; first compound 0.253 µM)	relative viability ([2]; first compound 0.8 µM)	relative viability ([2]; first compound 2.53 µM)	relative viability ([2]; first compound 8 µM)	relative viability ([3]; first compound 0.08 µM)	relative viability ([3]; first compound 0.253 µM)	relative viability ([3]; first compound 0.8 µM)	relative viability ([3]; first compound 2.53 µM)	relative viability ([3]; first compound 8 µM)	relative viability ([4]; first compound 0.08 µM)	relative viability ([4]; first compound 0.253 µM)	relative viability ([4]; first compound 0.8 µM)	relative viability ([4]; first compound 2.53 µM)	relative viability ([4]; first compound 8 µM)
NCI-H2228	0.497	0.503	0.494	0.406	0.208	0.672	0.744	0.945	0.854	0.717	0.423	0.36	0.248	0.45	0.284	0.625	0.581	0.471	0.363	0.43
NCI-H647	0.444	0.453	0.336	0.448	0.333	1.19	1.07	1.18	0.815	0.782		0.395		0.452	0.53	0.171	0.179		0.155	0.177
SK-MES-1	0.604	0.515	0.521	0.623	0.571	1.09	0.724	0.779	0.934	0.836	0.358	0.361	0.318	0.367	0.383	0.376	0.467	0.335	0.405	0.315
NCI-H2170	0.874	0.886	0.858	0.946	0.637	1.01	0.962	1.03	1.04	0.915	0.348	0.28	0.274	0.359	0.275	0.601	0.737	0.558	0.526	0.497
NCI-H2085	0.48	0.539	0.718	0.629	0.516	0.837	0.696	0.927	0.784	0.881	0.356	0.425	0.426	0.438	0.449	0.218	0.269	0.242	0.228	0.252
SW 1573	0.611	0.62	0.616	0.531	0.391	0.913	0.978	0.884	0.987	0.963	0.504	0.402	0.443	0.56	0.484	0.498	0.524	0.584	0.551	0.577
